One experiment deals with T1, human SGLT1 (Homo sapiens, UniProt P13866).
T1 construct: expressed in transfected cells
T1 sequence (P13866 1-664): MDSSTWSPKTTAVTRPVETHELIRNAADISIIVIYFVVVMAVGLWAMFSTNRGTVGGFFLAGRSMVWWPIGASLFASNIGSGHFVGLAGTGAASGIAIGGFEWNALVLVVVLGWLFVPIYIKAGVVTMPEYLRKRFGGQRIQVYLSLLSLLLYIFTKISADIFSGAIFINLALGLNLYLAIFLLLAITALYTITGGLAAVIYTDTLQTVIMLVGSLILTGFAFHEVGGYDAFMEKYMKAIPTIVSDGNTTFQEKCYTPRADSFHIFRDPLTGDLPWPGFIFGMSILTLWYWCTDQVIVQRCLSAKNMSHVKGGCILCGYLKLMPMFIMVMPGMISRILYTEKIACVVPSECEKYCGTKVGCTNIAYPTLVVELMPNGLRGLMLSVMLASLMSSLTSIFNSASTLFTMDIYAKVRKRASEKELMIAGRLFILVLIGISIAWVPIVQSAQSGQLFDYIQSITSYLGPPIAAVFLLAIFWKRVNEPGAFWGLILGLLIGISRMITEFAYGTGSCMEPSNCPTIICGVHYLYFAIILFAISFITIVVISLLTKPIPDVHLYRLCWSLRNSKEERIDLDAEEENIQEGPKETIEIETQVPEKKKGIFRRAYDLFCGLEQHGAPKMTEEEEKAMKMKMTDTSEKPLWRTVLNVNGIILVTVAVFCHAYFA
The experiment can be described thus: Sodium-dependent 14C-methyl-α-D-glucopyranoside uptake in CHO-K1 cells stably expressing human SGLT1. It is filed as cell-based. The note with it: for inhibition at 0.1 µM: compound at 0.1 μM; for IC50: 14C-methyl-α-D-glucopyranoside uptake. As to the method: (§1) SGLT1 and SGLT2 were cloned in form of cDNA from human small intestine (Genbank M24847), and from human kidney (Genbank M95549), respectively. Subsequently, each full cDNA was subcloned into pcDNA with each construct's integrity verified through follow-on sequencing. To generate CHO-K1 cells that stably express human SGLT1 or human SGLT2 CHO-K1 cells were transfected using DMRIE-C reagent (Life Technologies, Gaithersburg, Md.). Transfected cells were then selected in the presence of 500 μg/ml of the antibiotic G418 (Gibco-BRL, Grand Island, N.Y.). Individual clones were then characterized using the following cell-based assay for sodium-dependent glucose transport.
(§2) First, cell lines stably expressing human SGLT1 or SGLT2 were seeded at a density of 65,000 cells per well per 200 μl cell culture medium with 10 mM of NaButyrate (Aldrich Catalog No. 30341-0) in a 96-well flat bottom plate (COSTAR, Catalog No. 3903). For human SGLT1 or SGLT2 expressing CHO-K1 cells the culture medium comprised Ham's F-12 (Invitrogen Catalog No. 31765), Fetal Bovine Serum (Invitrogen Catalog No. 16000), G418 (Geneticin, Cellgro Catalog No. 30234-CI), Phlorizidin (Sigma Catalog No. P3449), DPBS (Cellgro Catalog No. 21030-CV), ^14C-methyl-α-D-glucopyranoside (Amersham Catalog No. CFB 76), and Methyl-α-D-glucopyranoside (Sigma Catalog No. M-9376).
(§3) The cells were allowed to incubate for 24 hours. Subsequently, the medium was aspirated from the plates and the cells were washed one time with 150 μl assay buffer and incubate 15 min with another 150 μl assay buffer which comprised 50 mM HEPES pH 7.4, 20 mM Tris Base, 5 mM KCl, 1 mM MgCl2, 1 mM CaCl2, and 137 mM NaCl. After removing the wash buffer, 40 μl assay buffer and 10 μl compound solution was added to each well, which was again allowed to incubate for 10 min.
(§4) Following the 10 min incubation, 10 μl of serial diluted Methyl-α-D-glucopyranoside (Sigma Catalog No. M-9376) containing 0.07 μCi ^14C-methyl-α-D-glucopyranoside (Amersham Catalog No. CFB 76) was added to the appropriate well and allowed to incubate for another 2 hours. ^14C-methyl-α-D-glucopyranoside (Sigma Catalog No. M-9376, St. Louis, Mo.) is a non-metabolizable glucose analog specific for sodium-dependent glucose transporters as previously described by H. Peng and J. E. Lever in “Post-transcriptional regulation of Na+/glucose cotransporter (SGLT1) gene expression in LLC-PK1 cells,” J. Biol. Chem. 270, 20536-42 (1995).
(§5) Next, the plates were twice washed with 150 μl of ice-cold DPBS (Cellgro Catalog No. 21030) that was then completely removed from the plates before adding 50 μl of MicroScint™-20 (Packard Catalog No. 6013621) to each well for a 20 min or longer incubation time.
(§6) Sodium-dependent ^14C-methyl-α-D-glucopyranoside uptake was quantified by measuring radioactivity. Plates were counted in a TopCount (Packard, Meriden, Conn.). Results are reported as the %-inhibition or IC50 value from a representative experiment. Variability for the functional assay was typically within 20%.

Another experiment concerns the target T2, human SGLT2 (Homo sapiens, UniProt P31639).
T2 construct: expressed in transfected cells
T2 sequence (P31639 1-672): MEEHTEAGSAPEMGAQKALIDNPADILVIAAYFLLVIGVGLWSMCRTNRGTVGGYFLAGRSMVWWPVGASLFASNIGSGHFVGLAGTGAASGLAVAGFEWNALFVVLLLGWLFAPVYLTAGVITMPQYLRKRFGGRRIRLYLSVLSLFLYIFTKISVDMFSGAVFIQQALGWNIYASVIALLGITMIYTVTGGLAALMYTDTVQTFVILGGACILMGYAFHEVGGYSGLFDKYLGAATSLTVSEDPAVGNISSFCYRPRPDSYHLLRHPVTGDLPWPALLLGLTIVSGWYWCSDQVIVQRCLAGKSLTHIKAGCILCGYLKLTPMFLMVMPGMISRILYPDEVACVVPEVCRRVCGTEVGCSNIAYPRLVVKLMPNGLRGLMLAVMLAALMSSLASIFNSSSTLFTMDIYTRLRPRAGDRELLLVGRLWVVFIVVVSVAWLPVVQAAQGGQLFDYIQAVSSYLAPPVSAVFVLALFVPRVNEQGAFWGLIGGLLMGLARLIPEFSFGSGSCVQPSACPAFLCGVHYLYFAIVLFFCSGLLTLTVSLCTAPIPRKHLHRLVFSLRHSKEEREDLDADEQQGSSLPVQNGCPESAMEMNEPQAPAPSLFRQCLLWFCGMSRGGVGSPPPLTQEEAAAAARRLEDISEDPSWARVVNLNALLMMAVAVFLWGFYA
The experiment can be described thus: Sodium-dependent 14C-methyl-α-D-glucopyranoside uptake in CHO-K1 cells stably expressing human SGLT2. It is filed as cell-based. The note with it: for inhibition at 0.1 µM: compound at 0.1 μM; for IC50: 14C-methyl-α-D-glucopyranoside uptake. The method, then:
as §1, §2, §3, §4, §5, §6

For seven compounds, inhibition and IC50 results are on record in US9012412B2, “Dual SGLT1/SGLT2 inhibitors” (Janssen Pharmaceutica NV, priority 2013, dated 2015).

What is called inhibition is the relative decrease from the control value, in per cent. Higher therefore signals a strong effect. As for `Cc1cc(-c2ccc[nH]2)c([C@@H]2O[C@H](CO)C[C@H](O)[C@H]2O)cc1Cc1cc2ccccc2s1` [Cpd 26, (2S,3R,4S,6S)-2-(5-(benzo[b]thiophen-2-ylmethyl)-4-methyl-2-(1H-pyrrol-2-yl)phenyl)-6-(hydroxymethyl)tetrahydro-2H-pyran-3,4-diol], the values for the inhibition at 0.1 µM at human SGLT1 and at human SGLT2 were 33% and 57%, respectively.
As a reminder, the IC50 is the point on the concentration scale where inhibition reaches its midpoint. Low values mean greater potency in that assay, high ones weaker potency in that assay. Take `Cc1cc(-c2cc[nH]n2)c([C@@H]2O[C@H](CO)C[C@H](O)[C@H]2O)cc1Cc1cc2ccccc2s1` [Cpd 27, (2S,3R,4S,6S)-2-(5-(benzo[b]thiophen-2-ylmethyl)-4-methyl-2-(1H-pyrazol-3-yl)phenyl)-6-(hydroxymethyl)tetrahydro-2H-pyran-3,4-diol]: the values for the IC50 against human SGLT1 and on human SGLT2 were 734 nM and 10 nM, respectively.
Turning to `Cc1cc(O)c([C@@H]2O[C@H](CO)C[C@H](O)[C@H]2O)cc1Cc1cc2ccccc2o1` [Cpd 28, (2S,3R,4S,6S)-2-(5-(benzofuran-2-ylmethyl)-2-hydroxy-4-methylphenyl)-6-(hydroxymethyl)tetrahydro-2H-pyran-3,4-diol], the inhibition at 0.1 µM at human SGLT1 turned out to be 33%; on human SGLT2, 69%.
On the same counts, the results for `Cc1cc(O)c([C@@H]2O[C@H](CO)C[C@H](O)[C@H]2O)cc1Cc1nc2ccccc2s1` [Cpd 29, (2S,3R,4S,6S)-2-(5-(benzo[d]thiazol-2-ylmethyl)-2-hydroxy-4-methylphenyl)-6-(hydroxymethyl)tetrahydro-2H-pyran-3,4-diol] are 22% and 41%.
Take `Cc1cc(Br)c([C@@H]2O[C@H](CO)C[C@H](O)[C@H]2O)cc1Cc1ccc(-c2ccc(F)cc2)s1` [Cpd 30, (2S,3R,4S,6S)-2-(2-bromo-5-((5-(4-fluorophenyl)thiophen-2-yl)methyl)-4-methylphenyl)-6-(hydroxymethyl)tetrahydro-2H-pyran-3,4-diol]: the inhibition at 0.1 µM worked out at 44% against human SGLT1 and 73% on human SGLT2.
At human SGLT1, `Cc1cc(O)c([C@@H]2O[C@H](CO)C[C@H](O)[C@H]2O)cc1Cc1ccc(-c2ccc(F)cc2)s1` [Cpd 31, (2S,3R,4S,6S)-2-(5-((5-(4-fluorophenyl)thiophen-2-yl)methyl)-2-hydroxy-4-methylphenyl)-6-(hydroxymethyl)tetrahydro-2H-pyran-3,4-diol] came in with an IC50 of 272 nM. Moreover, the inhibition at 0.1 µM against human SGLT2 came to 58%.
Consider `CCc1ccc(Cc2cc([C@@H]3O[C@H](CO)C[C@H](O)[C@H]3O)c(O)cc2C)s1` [Cpd 32, (2S,3R,4S,6S)-2-(5-((5-ethylthiophen-2-yl)methyl)-2-hydroxy-4-methylphenyl)-6-(hydroxymethyl)tetrahydro-2H-pyran-3,4-diol], for which the figures for the IC50 on human SGLT1 and against human SGLT2 were 97 nM and 4 nM, respectively.
